Laboratory results reported in patent US8530235B2, “Medium that supports culture of an oocyte and modulation of granulosa cell apoptosis” (Adelaide Research & Innovation Pty Ltd., priority 2005, dated 2013).

Assays:
cumulus cells [1] = test: Staurosporine-induced cumulus cell apoptosis in OOX (TUNEL); type: cell-based, Bovine; settings: for incidence of CC apoptosis: OOX alone, without 41%; for CC apoptosis of treated OOX exposed to staurosporine: 10% BMP-15 or 10 ng/ml BMP-6
Experimental: CC apoptoic DNA was detected using TUNEl (Roche Diagnostic, Penzberg, Germany) according to the manufacturer's instructions. […] Complexes were then permeabilized in 0.11/u Triton X-100 in 0.1% sodium citrate for 1 hour at room temperature and washed 3 times in PBS/BSA. The complexes were then incubated in fluorescein-conjugated dUTP and terminal deoxynucleotide transferase (TUNEl reagents, Roche) for 1 hour at 37° C. in the dark. Positive controls were incubated in DNAse 1 (0.005 U/µl), which cleaves all DNA, for 20 minutes at room temperature and washed twice in PBS/BSA before TUNEl. Negative controls were incubated in fluorescein-dUTP in the absence of TdT. After TUNEl, complexes were washed twice in PBS/BSA and counterstained with propidium iodide 0.5 μg/ml (PI) plus RNase A (0.1 mg/ml) for 1 hour at room temperature in the dark to label all nuclei. Complexes were then washed twice in PBS/BSA and mounted with slight coverslip compression in VectaShield anti-bleaching solution (Vector labs, Burlingame, Calif.), and stored in the dark at 4° C. for confocal analysis. […] These optical section images were acquired and saved as independent colour channels (green, apoptotic cumulus fluorescence and red, nuclear cumulus fluorescence). The captured images were then processed in Scanalytics IPlab software Version 3.6. (Scanalytics, Fairfax, Va.). Quantification of CC number (for each colour channel) was independently measured using a macro script utilizing an auto segmentation filter for each optical section percentile (3 optical “z”-plane sections for each complex). A percentage of apoptotic nuclei were generated for each slice and the three percentile values were then averaged to achieve a representation of the total apoptotic nuclei percentage for the whole complex. These processes were repeated separately on each individual complex. A preliminary experiment was conducted to determine the apoptotic effect of staurosporine on bovine CC, which induced apoptosis in a dose-dependent manner (range; 0.1-100 μM, data not shown). The aim of this experiment was to determine whether OSF could prevent CC from undergoing apoptosis induced by staurosporine. OOX alone or co-cultured with 35 DO, 10 ng/ml BMP-6 or 10% (v/v) BMP-15, and were then exposed to either 0.1 μM or 1.0 μM staurospourine for the last 6 hours of the 24 hour incubation period. Three replicates of this experiment were carried out using 10 OOX per treatment group per replicate experiment.

[2] = test system: cumulus expansion of oocytectomised (OOX) complexes; test: FSH-induced cumulus expansion score of OOX complexes; type: cell-based, mice
Experimental: Members of the TGF-β superfamily are prime candidates for the mouse cumulus expansion-enabling factor (CEEF). This study was conducted to examine TGF-β superfamily processes regulating cumulus expansion. COCs were collected from eGG-primed mice and the oocyte microsurgically removed to generate oocytectomised (OOX) complexes. […] The type-I receptors for GDF9 and […] are ALK5 and ALK4, respectively. We tested the ability of an ALK4/5/7 kinase inhibitor to neutralize cumulus expansion.

cumulus cells [3] = test: Cumulus cell apoptosis in oocytectomized complexes (OOX) and COC, TUNEL with confocal microscopy; type: cell-based, Bovine
Experimental: Bovine ovaries were collected from local abattoir and transported to the laboratory in warm saline (30-35° C.). Cumulus-oocyte complexes (COC) were aspirated from antral follicles (2- to 8-mm diameter) using an 18-gauge needle and a 10-ml syringe containing ˜2 ml aspiration media (Hepes-buffered Tissue Cultured Medium-199: TCM-199, ICN Biochemicals, Irvine, Calif., USA) supplemented with 50 μg/ml kanamycin (Sigma-Aldrish, St. louis, Mo.), 4 mg/ml fatty acid-free bovine serum albumin (FAF-BSA) (ICPbio ltd, Auckland, NZ). Intact COC with compact cumulus vestment greater than five cell layers and evenly pigmented cytoplasm were selected under a dissecting microscope and washed twice in Hepes-buffered TCM-199 and once in corresponding culturing media.
The cytoplasm of each oocyte was microsurgically removed from the COC (oocytectomy) using a micromanipulator as described in Buccione et al (Buccione et al. (1990) Dev Biol 138, 16-25.). The resulting oocytectomized complex (OOX) consists of a hollow zona pellucida surrounded by several layers of intact CC.
Denuded oocytes (DO) were generated by removing CC from COC by vortexing for approximately 4 minutes in 2 ml H-TCM-199/BSA. Any remaining CC were removed by repeated passage of the oocytes through a fine-bore fire-polished glass pipette in H-TCM-199/BSA.
CC apoptoic DNA was detected using TUNEl (Roche Diagnostic, Penzberg, Germany) according to the manufacturer's instructions. Briefly, following culture COC and OOX complexes were washed twice in PBS (pH 7.4) containing 1% BSA, fixed in 4% paraformaldehyde in PBS (pH 7.4) overnight at 4° C. and washed twice with PBS/BSA before placing on Cell-Tak-coated coverslips (Beckton Dickinson Biosciences, Franklin lakes, N.J.). Complexes were then permeabilized in 0.11/u Triton X-100 in 0.1% sodium citrate for 1 hour at room temperature and washed 3 times in PBS/BSA. The complexes were then incubated in fluorescein-conjugated dUTP and terminal deoxynucleotide transferase (TUNEl reagents, Roche) for 1 hour at 37° C. in the dark. Positive controls were incubated in DNAse 1 (0.005 U/µl), which cleaves all DNA, for 20 minutes at room temperature and washed twice in PBS/BSA before TUNEl. Negative controls were incubated in fluorescein-dUTP in the absence of TdT. After TUNEl, complexes were washed twice in PBS/BSA and counterstained with propidium iodide 0.5 μg/ml (PI) plus RNase A (0.1 mg/ml) for 1 hour at room temperature in the dark to label all nuclei. Complexes were then washed twice in PBS/BSA and mounted with slight coverslip compression in VectaShield anti-bleaching solution (Vector labs, Burlingame, Calif.), and stored in the dark at 4° C. for confocal analysis.
Apoptosis in COC and OOX was visualised and quantified using confocal microscopy. Dual fluorescence emission from CC was detected using a Nikon C1 Confocal Scanning Head and a Nikon TE2000E microscope (Nikon, Tokyo, Japan). Simultaneous emission capture of the apoptotic signal (fluorescein, lacer excitation 488 nm, emission 510-530 nm) and the nuclear signal (propidium iodide, excitation lacer 532, emission 590-640 nm) was performed.
In order to generate an accurate representation of the overall apoptotic incidence for all complexes, the depth of each complex was measured through a Z series to divide the construct into three percentiles (optical Z plane sections) at 25%, 50% and 75%. These optical section images were acquired and saved as independent colour channels (green, apoptotic cumulus fluorescence and red, nuclear cumulus fluorescence). The captured images were then processed in Scanalytics IPlab software Version 3.6. (Scanalytics, Fairfax, Va.). Quantification of CC number (for each colour channel) was independently measured using a macro script utilizing an auto segmentation filter for each optical section percentile (3 optical “z”-plane sections for each complex).

cumulus-oocyte complexes = test: Study IV: oocyte developmental competence after IVM, IVF and embryo culture; type: cell-based, Bovine
Experimental: Unless otherwise specified, all chemicals and reagents were purchased from Sigma (St Louis, Mo.). Bovine ovaries were collected from local abattoirs and transported to the laboratory in warm saline (30-35° C.). COCs were aspirated from antral follicles (3 to 5 mm diameter) using an 18-gauge needle and a 10-ml syringe containing ˜2 ml aspiration medium (Hepes-buffered. Tissue Cultured Medium-199; TCM-199. ICN Biochemicals, Irvine, Calif., USA) supplemented with 50 μg/ml kanamycin, 0.5 mM sodium pyruvate, 50 μg/ml heparin and 4 mg/ml fatty acid-free bovine serum albumin (FAF-BSA; ICPbio Ltd, Aukland, NZ). Intact COCs with compact cumulus vestments>˜5 cell layers and evenly pigmented cytoplasm were selected under a dissecting microscope and washed twice in Hepes-buffered TCM-199 and once in Hepes-buffered TCM-199 supplemented with 10% fetal calf serim (FCS) (Invitrogen, Carlsbad, Calif.). The basic medium for oocyte maturation was Bovine VitroMat (Cook Australia, Eight Mile Plains, Qld, Australia), a medium based on the ionic composition of bovine follicular fluid. […] Complexes were cultured in pre-equilibrated 300 ? l drops overlaid with mineral oil and incubated at 39° C. with 5% CO2 in humidified air for 24 hour. […]
Recombinant mouse GDF9 and recombinant ovine BMP15 were produced and partially purified in-house as previously described using transfected 293 human embryonic kidney cell lines (293H) originally donated by O. Ritvos (University of Helsinki). Control conditioned medium (hereafter designated ‘293H’) was produced from untransfected 293H cells and subjected to the same chromatography procedures as GDF9 and BMP15 conditioned media.
Consequently, SB-431542 potently antagonizes the ALK 4/5 ligands; TGF-β1, the activins and GDF9, without affecting BMP signalling (Inman et al., 2002; Gilchrist et al., 2006). […] Follistatin-288 was generously donated by S. Shimasaki (University of California San Diego, USA) and we have previously shown that this binding protein antagonizes the bioactivities of native OSFs and recombinant BMP15 in CCs.
In vitro production of embryos was undertaken using defined, serum-free media (Bovine Vitro series of media, Cook Australia). Frozen semen from a single bull of proven fertility was used in all experiments. Briefly, thawed semen was layered over a discontinuous (45%: 90%) Percoll gradient (Amersham Bioscience) and centrifuged (RT) for 20-25 mins at 700 g. The supernatant was removed and the sperm pellet was washed with 500 μl Bovine VitroWash (Cook Australia) and centrifuged for a further 5 minutes at 200 g. Spermatozoa were resuspended with IVF medium (Bovine VitroFert, Cook Australia), then added to the fertilization media drops (Bovine VitroFert, supplemented with 0.01 mM heparin, 0.2 mM penicillamine and 0.1 mM hypotaurine) at a final concentration of 1×106 spermatozoa/ml. COCs were inseminated at a density of 10 μl of IVF medium per COC for 24 h, at 39° C. in 6% CO2 in humidified air.
CCs were removed by gentle pipetting 23-24 h post insemination and five presumptive zygotes were transferred into 20 μl drops of pre-equilibrated Cook Bovine VitroCleave medium (Cook Australia) and cultured under mineral oil at 38.5° C. in 7% O2, 6% CO2, balance N2, for five days (day 1 to day 5).
On Day 5, embryos were transferred in groups of 5-6 to 20 μl drops of pre-equilibrated Bovine VitroBlast (Cook Australia) at 38.5° C. overlaid with mineral oil and cultured to Day 8. Embryos were assessed for quality at Day 8 according to the definitions presented in the Manual of the International Embryo Transfer Society (Stringfellow, 1998) and were performed independently and blinded by an experienced bovine embryologist.
Cell counts were performed using a modified version of the technique described by (Fouladi-Nashta et al., 2005). […]

Molecule: CN[C@@H]1C[C@H]2O[C@@](C)([C@@H]1OC)n1c3ccccc3c3c4c(c5c6ccccc6n2c5c31)C(=O)NC4 [staurosporine, reference compound]
- incidence of CC apoptosis (cumulus cells [1]; 0.1 μM staurosporine for the last 6 h of 24 h): 51%
- incidence of CC apoptosis (cumulus cells [1]; 1.0 μM staurosporine for the last 6 h of 24 h): 74%

Molecule: follistatin [reference compound]
- cumulus expansion score with follistatin ([2]; OOX complexes co-cultured with oocytes, no significant effect (p>0.05)): 2.7±0.2
- cumulus expansion score with follistatin ([2]; response of OOX complexes to activin): 0
- apoptosis of BMP-15-treated OOXs with antagonist (cumulus cells [3]; OOX + 10% v/v BMP-15, follistatin 0-100 μg/ml): dose-dependent increase in apoptosis
- antagonism of the anti-apoptotic effects of oocytes on cumulus cells (cumulus cells [3]; OOX + 25 DO, 50 μg/ml follistatin or 20 μg/ml BMP-6 NAb alone): ~50%
- blastocyst development of control COCs treated with antagonist (cumulus-oocyte complexes; 4 μM SB-431542 or 10 μg/ml follistatin-288, compared to untreated COCs): significantly (P<0.05) decreased
- cleavage rate of oocytes (cumulus-oocyte complexes; 10 μg/ml follistatin-288 during IVM, regardless of BMP15 treatment, control 76.2±1.3, p=0.007, in %): 71.8±1.3
- increase of blastocyst yields by GDF9 or BMP15 on addition of the respective antagonist (cumulus-oocyte complexes; SB-431542 against GDF9, follistatin against BMP15): ablated

B1: activin A: TGF-β superfamily member, ligand of ALK4 (protein, UniProt P08476 311-426, looked up)
Inhibin beta A chain: GLECDGKVNICCKKQFFVSFKDIGWNDWIIAPSGYHANYCEGECPSHIAGTSGSSLSFHSTVINHYRMRGHSPFANLKSCCVPTKLRPMSMLYYDDGQNIIKKDIQNMIVEECGCS
modifications: Inhibin beta A chain
notes: TGF-β superfamily member, ligand of ALK4
- cumulus expansion score ([2]; score 0 (no expansion) to +4 (maximum expansion), mean ±SEM, OOX complexes with FSH): 2.6±0.1

B2: BMP-6: Recombinant human BMP-6 obtained from R&D systems (protein, UniProt P22004 375-513, looked up)
Bone morphogenetic protein 6: SASSRRRQQSRNRSTQSQDVARVSSASDYNSSELKTACRKHELYVSFQDLGWQDWIIAPKGYAANYCDGECSFPLNAHMNATNHAIVQTLVHLMNPEYVPKPCCAPTKLNAISVLYFDDNSNVILKKYRNMVVRACGCH
- effect on incidence of cumulus cell apoptosis (cumulus cells [3]; OOX cultured with increasing doses (GDF-9 0-175 ng/ml, BMP-6 0-100 ng/ml, BMP-15 0-20% v/v, 5-50 DO), presence or absence of FSH): significantly decreased
- effect on CC apoptosis, test for additive effect (cumulus cells [3]; OOX treated with DO, 10 ng/ml BMP-6 and/or 10% v/v BMP-15): significantly (P<0.001) decreased
- CC apoptosis of treated OOX exposed to staurosporine (cumulus cells [1]; 0.1 μM staurosporine): 21%
- CC apoptosis of treated OOX exposed to staurosporine (cumulus cells [1]; 1 μM staurosporine): 31%

B3: gremlin: BMP antagonist (BMP-2, BMP-4, BMP-7) obtained from R&D systems (protein, UniProt O60565 25-184, looked up)
Gremlin-1: KKKGSQGAIPPPDKAQHNDSEQTQSPQQPGSRNRGRGQGRGTAMPGEEVLESSQEALHVTERKYLKRDWCKTQPLKQTIHEEGCNSRTIINRFCYGQCNSFYIPRHIRKEEGSFQSCSFCKPKKFTTMMVTLNCPELQPPTKKKRVTRVKQCRCISIDLD
- antagonism of the inhibitory effect of BMP-7 on CC apoptosis (cumulus cells [3]; OOX + 100 ng/ml BMP-7, 2 μg/ml gremlin, not when BMP-15 was present): significantly (P<0.001) reversed
- apoptosis of BMP-15-treated OOXs with antagonist (cumulus cells [3]; OOX + 10% BMP-15, increasing dose of gremlin (0-40 μg/ml)): not significantly increased
